From ChEMBL document CHEMBL1201862, “PubChem BioAssay data set” (2004)
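Method: 48-hour compound exposure of cells in 96-well plates, five concentrations, linear interpolation of endpoints. The concentration for 50% growth inhibition is given as GI50.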 The source made the active and inactive calls. Cut-off read from the data, not from the text of the source: active = GI50 up to about 1.1 µM and inactive = higher.

How the values were obtained:
Test in all cases: NCI tumour cell line growth inhibition, 48 h
[1] = system: A498
[2] = system: MDA-MB-231
[3] = system: NCI-H460
[4] = system: NCI-H522
[5] = system: MOLT-4
[6] = system: SF-268
[7] = system: TK-10
[8] = system: KM12
[9] = system: M14
[10] = system: K562
[11] = system: OVCAR-4
[12] = system: SNB-75
[13] = system: EKVX
[14] = system: OVCAR-5
[15] = system: COLO 205
[16] = system: SF-295
[17] = system: Hs-578T
[18] = system: T47D
[19] = system: CAKI-1
[20] = system: SK-MEL-5
[21] = system: ACHN
[22] = system: MDA-N
[23] = system: SW-620
[24] = system: SK-OV-3
[25] = system: NCI/ADR-RES
[26] = system: 786-0
[27] = system: HCC 2998
[28] = system: IGROV-1
[29] = system: MDA-MB-435
[30] = system: HT-29
[31] = system: OVCAR-3
[32] = system: SN12C
[33] = system: HL-60
[34] = system: RPMI-8226
[35] = system: UACC-62
[36] = system: NCI-H23
[37] = system: SF-539
[38] = system: BT-549
[39] = system: UO-31
[40] = system: HCT-116
[41] = system: SNB-19
[42] = system: Malme-3M
[43] = system: OVCAR-8
[44] = system: DU-145
[45] = system: HOP-92
[46] = system: MCF7
[47] = system: U-251
[48] = system: RXF 393
[49] = system: LOX IMVI
[50] = system: HCT-15
[51] = system: HOP-62
[52] = system: CCRF-CEM
[53] = system: A549
[54] = system: UACC-257
[55] = system: PC-3
[56] = system: SK-MEL-28
[57] = system: SK-MEL-2
[58] = system: NCI-H226

## Nc1ncnc2c1ccn2C/C=C\CO
[1]
  GI50: > 100 µM (inactive)
[2]
  GI50: > 100 µM (inactive)
[3]
  GI50: > 100 µM (inactive)
[4]
  GI50: 84.7 µM (inactive)
[5]
  GI50: 85.9 µM (inactive)
[6]
  GI50: > 100 µM (inactive)
[7]
  GI50: > 100 µM (inactive)
[8]
  GI50: > 100 µM (inactive)
[9]
  GI50: > 100 µM (inactive)
[10]
  GI50: > 100 µM (inactive)
[11]
  GI50: > 100 µM (inactive)
[12]
  GI50: > 100 µM (inactive)
[13]
  GI50: > 100 µM (inactive)
[14]
  GI50: > 100 µM (inactive)
[15]
  GI50: > 100 µM (inactive)
[16]
  GI50: > 100 µM (inactive)
[17]
  GI50: > 100 µM (inactive)
[18]
  GI50: > 100 µM (inactive)
[19]
  GI50: > 100 µM (inactive)
[20]
  GI50: > 100 µM (inactive)
[21]
  GI50: > 100 µM (inactive)
[22]
  GI50: > 100 µM (inactive)
[23]
  GI50: > 100 µM (inactive)
[24]
  GI50: > 100 µM (inactive)
[25]
  GI50: > 100 µM (inactive)
[26]
  GI50: > 100 µM (inactive)
[27]
  GI50: > 100 µM (inactive)
[28]
  GI50: > 100 µM (inactive)
[29]
  GI50: > 100 µM (inactive)
[30]
  GI50: > 100 µM (inactive)
[31]
  GI50: > 100 µM (inactive)
[32]
  GI50: > 100 µM (inactive)
[33]
  GI50: > 100 µM (inactive)
[34]
  GI50: > 100 µM (inactive)
[35]
  GI50: > 100 µM (inactive)
[36]
  GI50: > 100 µM (inactive)
[37]
  GI50: > 100 µM (inactive)
[38]
  GI50: > 100 µM (inactive)
[39]
  GI50: > 100 µM (inactive)
[40]
  GI50: > 100 µM (inactive)
[41]
  GI50: > 100 µM (inactive)
[42]
  GI50: > 100 µM (inactive)
[43]
  GI50: > 100 µM (inactive)
[44]
  GI50: > 100 µM (inactive)
[45]
  GI50: > 100 µM (inactive)
[46]
  GI50: > 100 µM (inactive)
[47]
  GI50: > 100 µM (inactive)
[48]
  GI50: > 100 µM (inactive)
[49]
  GI50: > 100 µM (inactive)
[50]
  GI50: > 100 µM
[51]
  GI50: > 100 µM (inactive)
[52]
  GI50: > 100 µM (inactive)
[53]
  GI50: > 100 µM (inactive)
[54]
  GI50: > 100 µM (inactive)
[55]
  GI50: > 100 µM (inactive)
[56]
  GI50: > 100 µM (inactive)
[57]
  GI50: > 100 µM (inactive)

## COc1cc(OC)c(OC)cc1/C=C/c1cnnc2ccccc12
[1]
  GI50: > 10 µM (inactive)
[58]
  GI50: > 10 µM (inactive)
[2]
  GI50: > 10 µM (inactive)
[3]
  GI50: > 10 µM (inactive)
[4]
  GI50: > 10 µM (inactive)
[5]
  GI50: > 10 µM (inactive)
[6]
  GI50: > 10 µM (inactive)
[7]
  GI50: > 10 µM (inactive)
[8]
  GI50: > 10 µM (inactive)
[9]
  GI50: > 10 µM (inactive)
[10]
  GI50: 7.85 µM (inactive)
[11]
  GI50: > 10 µM (inactive)
[12]
  GI50: 2.85 µM (inactive)
[13]
  GI50: > 10 µM (inactive)
[14]
  GI50: > 10 µM (inactive)
[15]
  GI50: > 10 µM (inactive)
[16]
  GI50: > 10 µM (inactive)
[17]
  GI50: > 10 µM (inactive)
[18]
  GI50: > 10 µM (inactive)
[19]
  GI50: > 10 µM (inactive)
[20]
  GI50: > 10 µM (inactive)
[21]
  GI50: > 10 µM (inactive)
[22]
  GI50: 4.05 µM (inactive)
[23]
  GI50: > 10 µM (inactive)
[24]
  GI50: > 10 µM (inactive)
[25]
  GI50: > 10 µM (inactive)
[26]
  GI50: > 10 µM (inactive)
[27]
  GI50: > 10 µM (inactive)
[28]
  GI50: > 10 µM (inactive)
[29]
  GI50: 1.84 µM (inactive)
[30]
  GI50: > 10 µM (inactive)
[31]
  GI50: > 10 µM (inactive)
[32]
  GI50: > 10 µM (inactive)
[33]
  GI50: > 10 µM (inactive)
[34]
  GI50: > 10 µM (inactive)
[35]
  GI50: > 10 µM (inactive)
[36]
  GI50: > 10 µM (inactive)
[37]
  GI50: > 10 µM (inactive)
[38]
  GI50: > 10 µM (inactive)
[39]
  GI50: > 10 µM (inactive)
[40]
  GI50: > 10 µM (inactive)
[41]
  GI50: > 10 µM (inactive)
[42]
  GI50: > 10 µM (inactive)
[43]
  GI50: > 10 µM (inactive)
[44]
  GI50: > 10 µM (inactive)
[45]
  GI50: > 10 µM (inactive)
[46]
  GI50: 1.68 µM (inactive)
[47]
  GI50: > 10 µM (inactive)
[48]
  GI50: > 10 µM (inactive)
[49]
  GI50: 6.9 µM (inactive)
[50]
  GI50: > 10 µM
[51]
  GI50: > 10 µM (inactive)
[52]
  GI50: > 10 µM (inactive)
[53]
  GI50: > 10 µM (inactive)
[54]
  GI50: > 10 µM (inactive)
[55]
  GI50: 4.33 µM (inactive)
[56]
  GI50: > 10 µM (inactive)
[57]
  GI50: > 10 µM (inactive)
